Data on 91 molecules can be found in a melting point compilation (Tetko et al.; mined from patent text by program, amines drawn as free bases though some values may be those of a salt).

On to `CN(c1nc(Nc2ccc(O)cc2)nc(NC2CCCCCC2)n1)C1CCNCC1`, for which the melting point was found to be 130 °C.
For the molecule `COc1ccc2nc3c(C)ccc([N+](=O)[O-])c3c(Cl)c2c1`, the melting point fell in the range of 227 to 228 °C.
With `COc1ccc(-c2sc3cc(OC)ccc3c2C#N)cc1`, the melting point was 142 to 143 °C.
As for `C#CCOc1cc(OCC#C)ncn1`, the melting point stood at 74 °C.
With `Nc1cc(CO)cc(S(N)(=O)=O)c1Oc1ccccc1` the figure was 170 °C.
With `COC(=O)C1=C(O)CCc2c(OC)cccc21` the figure was 55 to 58 °C; with `N#Cc1c(N)c(C#N)c(-c2ccccc2)c2c1CCC2`, 148 to 149 °C.
Consider `C[C@H](CSC(=O)c1ccccc1)C(=O)N(CC(=O)OC(C)(C)C)C1CCCC1`, for which the melting point was in the range of 54 to 56 °C.
Molecule `CCc1cc2c(s1)-n1c(nnc1C1CCCCC1)CN=C2c1ccccc1Cl` registered a melting point of 116 to 119 °C.
The molecule `O=Cc1c[nH]c2ccc(Nc3ncnc4cc(-c5ccccc5)sc34)cc12` yielded a melting point of 174 to 175 °C.
With `COc1cc2nc(N3CCN(c4ccc(O)nn4)CC3)nc(N)c2cc1OC` the figure was 296 to 297 °C; with `CC(=O)OC1CSC(Oc2ccc3ccn(C(=O)OC(C)(C)C)c3c2)C(OC(C)=O)C1OC(C)=O` (stereo unspecified), 147 to 158 °C.
With `CCNS(=O)(=O)c1ccc(NC(C)=O)cc1` the figure was 90 to 91 °C; with `Cc1nncn1-c1ccc(Cl)cc1C(=O)O`, 252 to 254 °C.
With `Cc1ccc(-c2ccccc2C#N)cc1Br` the figure was 104 to 106 °C; with `O=C(Nc1nc(Cl)c(C(=O)NCc2ccccc2)s1)c1ccccc1`, 247 to 249 °C; with `NC(=S)Nc1ccc2ccccc2c1`, 190 to 192 °C.
`COC(=O)C(C)NC(=O)C1CCCN1C(=O)OCc1ccccc1` (stereo unspecified) yielded a melting point of 45 to 49 °C.
With `Cc1cc(N)ccc1N1CCOCC1` the figure was 83 to 84 °C; with `CCC(C(=O)OC1CC(=O)NC1=O)c1ccccc1` (stereo unspecified), 96.5 to 97.5 °C.
`CCCn1c(=O)c2c(nc(/C=C/c3ccc(OC)cc3)n2C)n(CCC)c1=O` gave a melting point of 160 to 161 °C.
With `COc1ccc(C(C#Cc2ccccc2)CC(N)=O)cc1OC1CCCC1` (racemic), the melting point lay in the range of 142 to 144 °C.
For the molecule `COc1ccc(C(CN2CCN(Cc3ccccc3)C2=O)NC(C)=O)cc1OC` (stereo unspecified), the melting point is 156 °C.
Regarding `NCc1ccc(N2CC(CN3CCC(CC(=O)O)CC3)OC2=O)cc1` (stereo unspecified), the melting point was 135 °C.
The molecule `C=C(C)c1cnn(-c2ccnc3cc(Cl)ccc23)c1` returned a melting point of 85.5 to 88 °C.
`CCOc1nc2c(cnn2CC)nc1C(=O)Nc1nccs1` came in with a melting point of 151 to 152 °C.
The same measure for `O=C1N(Cc2ccccn2)c2c(F)cccc2C12COc1cc3c(cc12)OCCO3` (stereo unspecified): 205 to 207 °C.
The same measure for `CCOC(=O)C(Br)=NNc1ccc(F)cc1`: 99 to 100 °C.
The molecule `CON=C(C#N)C(=O)NC(=O)NCCCCCC(=O)OC` registered a melting point of 91 °C.
For `CCOC(=O)COc1cc(F)c(C)cc1C(=O)NCc1ccc(Br)cc1F`, the melting point is 128 to 129 °C.
Take `COC(=O)Cc1c(C)nc(SC)nc1O`: the melting point worked out at 200 °C.
The same measure for `CC(=O)Nc1ccc2[nH]c(C=CC(=O)O)cc2c1`: 238 to 239 °C; for `CC(C)(C)OC(=O)c1ccc([N+](=O)[O-])c(OCCOc2cc(C(=O)OC(C)(C)C)ccc2[N+](=O)[O-])c1`: 155 to 157 °C; for `COC(=O)CCCCCCCCCCCCCCC=O`: 41.5 °C.
The same measure for `CC(=O)c1ccc(N)c(C#N)c1`: 155 to 159 °C; for `Cc1cc(CC(=O)O)n(C)c1C(=O)c1ccc(Cl)cc1Cl`: 140 to 143 °C; for `COc1ccc(-c2ccc(C(=O)Nc3cc4ncc(CN5CCCC5)cc4cc3C)cc2)cc1`: 194 to 198 °C.
With `O=C1CCc2ccc(OCCCCCl)cc2N1` the figure was 104 to 106 °C; with `CCCCCCCCCCCCS(=O)(=O)NN(C(=O)c1ccccc1)c1cc(Cl)c(C)cc1O`, 124 to 125 °C; with `O=C(O)CSc1ccc(/C=C/C(=O)NCc2cccnc2)cc1`, 160 to 161 °C.
The molecule `Cc1ccc(OCc2nc(N)c3nccnc3n2)cc1` showed a melting point of 225 to 227 °C.
With `CC(C)c1cccc(C(C)C)c1N1C(=O)C(c2ccccc2)=C(c2ccccc2)C1=O` the figure was 233 to 234 °C.
Regarding `Clc1ccccc1C1=NOC(c2ccccc2Cl)N1` (stereo unspecified), the melting point lay in the range of 75 to 78 °C.
Consider `CC(C)(C)OC(=O)[C@H]1C[C@@H](C(=O)OCc2ccccc2)[C@@H](c2ccccc2)N1` (racemic), for which the melting point worked out at 70 °C.
With `O=C(CCCN1CCC(C(O)c2cccc3ccccc23)CC1)c1ccc(F)cc1` (stereo unspecified) the figure was 172 to 174 °C.
With `Cn1nnnc1CC(O)(c1ccccc1)c1ccc(F)cc1` (stereo unspecified), the melting point is 113 to 114 °C.
On to `CCOC(=O)N1CCC(N)(CC#N)CC1`, for which the melting point was in the range of 68 to 69 °C.
On to `CN(C)C(=O)N1CCSC1c1ccccc1OCCN1CCN(c2cccc(F)c2)CC1` (stereo unspecified), for which the melting point lay within 90.5 to 93 °C.
`Cc1oc(-c2ccco2)nc1COc1ccc(COc2nn(Cc3ccccc3)cc2CO)cn1` came in with a melting point of 94 to 95 °C.
For `COc1cc(-c2csc(C#N)n2)cc(Cl)c1OC`, the melting point fell in the range of 147 to 149 °C.
`COc1ccc2c(c1)N(CCCCl)c1cccc(S(=O)(=O)N(C)C)c1S2` came in with a melting point of 124 to 126 °C.
With `CCOC(=O)c1cc(OCCC2CCN(c3ccc(Cl)nn3)CC2)cs1` the figure was 112 °C.
With `COc1nc(Cl)cnc1NS(=O)(=O)c1cccc(F)c1Cl` the figure was 159 to 160 °C; with `CC(CN1CCCC1)N1c2ccccc2Sc2ccc(C(=O)NCC3CCCCC3)cc21` (racemic), 120 °C; with `CCCCNc1nc(C)c(C(=O)OCC)c2c1nnn2CC`, 85 to 87 °C.
For `C[C@@H]1C[C@H](C)CN(S(=O)(=O)c2ccc(Cl)c(C(=O)NCCCC(=O)O)c2)C1`, the melting point was 193 to 195 °C.
Take `CCOCn1c(Oc2ccccc2)c(CC)c(=O)[nH]c1=O`: the melting point is 130 to 131 °C.
With `O=C(O)c1cc(F)c(F)c(Cl)c1F` the figure was 109 to 111 °C.
`Cc1ccnc(N2CCN(CCCCC3Sc4ccccc4NC3=S)CC2)c1` (stereo unspecified) had a melting point of 119 °C.
`C=Cc1cc(C(=O)OC)c(NC(C)=O)cc1C(F)(F)F` displayed a melting point of 79 to 81 °C.
The same measure for `CCOC(=O)c1cnc2ccc(I)cn2c1=O`: 166 to 168 °C.
With `Fc1ccc(Nc2ncnc3cnc(N4CCCCCC4)nc23)cc1Cl` the figure was 87 to 90 °C; with `COc1c(C=NO)ccc2c1OCO2`, 118 to 119 °C; with `CCOC(=O)C1=C(NC(=O)Nc2cc(C(=O)OC(C)C)c(Cl)cc2F)CCCC1`, 129 to 130 °C.
With `Cn1c(COc2ccc(CC3SC(=O)N(C(c4ccccc4)(c4ccccc4)c4ccccc4)C3=O)cc2)nc2cccnc21` (stereo unspecified) the figure was 97 to 102 °C; with `CCCn1nc(SCCCCC(=O)O)c(C(=O)O)c1Cc1cc2c(cc1Cl)OCO2`, 185 °C.
`CC1(C)C(=O)N(c2ccccc2)C(=S)N1c1ccc(OCc2ccccc2)cc1` came in with a melting point of 208 to 210 °C.
With `Cn1cc(C2=C(c3ccc4ccccc4c3)C(=O)NC2=O)c2ccccc21` the figure was 180 to 184 °C.
The molecule `CCN1C(=O)CCCc2c1ccc(Nc1ncc(Cl)c(N[C@@H]3CCC[C@H]3NS(C)(=O)=O)n1)c2OC` (relative stereo) displayed a melting point of 141 °C.
The same measure for `OC1CCN(c2nc(-c3ccccc3)nc3ccccc23)C1` (stereo unspecified): 180 to 182 °C; for `N#CCCN1CCC(C2c3ccccc3C=Cc3ccccc32)CC1`: 165 to 168 °C.
As to `COc1cc(OCCCN2CCc3cc(OC)c(OC)cc3C2)ccc1NC(=O)c1cccc2c(=O)c3cccc(C)c3[nH]c12`, the melting point lay in the range of 183 to 184 °C.
The same measure for `C[C@@H]1N(c2ccc(C#N)c(C(F)(F)F)c2)C(=O)C[C@]1(C)O`: 134 to 137 °C; for `O=C(CCl)N1CCN(C(=O)CCl)CC1`: 104 to 107 °C.
Regarding `CCNC1(c2ccccc2Cl)C(=O)N(Cc2ccc(C(=O)NC(C)(CO)CO)cc2)c2ccc(Cl)cc21` (stereo unspecified), the melting point was 138 to 141 °C.
Molecule `COC(=O)c1nc(N2CCCC2)ccc1Oc1nc(OC)cc(OC)n1` registered a melting point of 151 to 153 °C.
With `COc1ccc(CSc2cccc(Cl)c2CN(C)C)cc1`, the melting point is 101 to 104 °C.
Turning to `O=C(Nc1ccc([N+](=O)[O-])cc1)C(F)F`, the melting point was 188 to 189 °C.
With `COc1ccccc1CC(=O)N1C[C@@H]2SCCC(c3ccccc3)(c3ccccc3)[C@@H]2C1` (racemic) the figure was 172 °C; with `C#CCOc1cc(-n2c(=O)nc(N(C)C)n(C)c2=O)c(F)cc1Cl`, 61 to 65 °C.
Turning to `CCc1sc2ncnc(N)c2c1-c1ccc(NC(=O)c2ccccc2)cc1`, the melting point is 213 to 214 °C.
Molecule `COC(=O)C1=C(C)NC(C)=C(c2nc(CCl)no2)C1c1cccc([N+](=O)[O-])c1` (stereo unspecified) yielded a melting point of 200 to 202 °C.
With `N#CC1CN1C(=O)c1ccc(-c2ccccc2)cc1` (stereo unspecified) the figure was 104 to 106 °C; with `Cn1cc(Cl)c2cccc(C(=O)c3ccccc3)c21`, 73 to 74.5 °C.
Take `OC[C@H]1C[C@@H](n2cnc3cc(Cl)c(Cl)cc32)[C@H](O)[C@@H]1O`: the melting point was in the range of 222 to 225 °C.
With `CN(Cc1ccc(Cl)c(Cl)c1)C(=O)C1=C(O)C(=O)N(CCC(=O)O)C1` the figure was 183 to 184 °C; with `O=C(NO)[C@H](CNS(=O)(=O)c1ccc(OCc2ccccc2)cc1)N1CCCC1`, 186 °C.
The same measure for `Cc1cccc(C)c1N1C(=N)N(c2c(C)cccc2C)C(C)C1C` (stereo unspecified): 155 to 157 °C; for `CCc1nc2c(N)nc3ccc(-c4cccnc4)cc3c2n1CC(C)C`: over 250 °C; for `CN1CC=C(c2c[nH]c3ccc(C4CN=CS4)cc23)CC1` (stereo unspecified): 260 to 263 °C.
The same measure for `NCCCC[C@H](O)C(=O)O`: 197 to 199 °C.

For orientation: melting point means the temperature, or range, at which the solid turns liquid.
